Measured values as given in patent US9469615B2, “Quinoxalines and AZA-quinoxalines as CRTH2 receptor modulators” (Merck Sharp & Dohme Corp., priority 2010, dated 2016).

Target: T1, hCRTH2 (Homo sapiens, UniProt Q9Y5Y4)
T1 construct: expressed in transfected cells; host or cells: HEK (human embryonic kidney) cells expressing hCRTH2; membrane preparation
T1 sequence (Q9Y5Y4 1-395): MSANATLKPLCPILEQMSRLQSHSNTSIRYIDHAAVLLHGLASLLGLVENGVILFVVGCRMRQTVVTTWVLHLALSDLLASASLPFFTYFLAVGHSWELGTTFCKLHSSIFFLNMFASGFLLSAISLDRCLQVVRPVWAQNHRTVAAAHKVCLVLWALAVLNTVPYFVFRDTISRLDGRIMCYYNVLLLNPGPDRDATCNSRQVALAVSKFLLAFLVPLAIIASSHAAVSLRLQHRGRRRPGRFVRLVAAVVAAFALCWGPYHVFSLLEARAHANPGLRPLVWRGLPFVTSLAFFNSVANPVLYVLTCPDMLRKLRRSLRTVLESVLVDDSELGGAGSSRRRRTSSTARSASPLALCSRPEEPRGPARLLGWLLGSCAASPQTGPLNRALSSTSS
Assay: Radioligand binding assay ([3H]PGD2 competition, HEK-hCRTH2 membranes)
Settings: [3H]PGD2 competition, Table B
Outline: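 HEK-hCRTH2 membranes, 8-20 μg; [3H]PGD2 3.0 nM; 50 mM Tris-HCl pH 7.4/1 mM EDTA/2 mM MnCl2; DMSO 1%; 60 min RT; NSB 10 μM PGD2; filtration, scintillation counting.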

| Ki [nM] | SMILES |
| --- | --- |
| 2.1 to 20 | N#Cc1ccc(C2CN(C(=O)c3ccc4nc(-c5ccc(Cl)cc5)c(CC5CCC(C(=O)O)C5)nc4c3)C2)cc1 (stereo not shown) [compound 400, 3-((3-(4-chlorophenyl)-7-(3-(4-cyanophenyl)azetidine-1-carbonyl)quinoxalin-2-yl)methyl)cyclopentane-carboxylic acid] |
| 20.1 to 200 | O=C(N[C@H](c1ccc(Cl)cc1)C(F)(F)F)c1ccc2nc(-c3ccc(Cl)cc3)c(CC3CCC(C(=O)O)C3)nc2c1 (stereo partly shown) [compound 401] |
| 2.1 to 20 | C[C@H](NC(=O)c1ccc2nc(-c3ccc(Cl)cc3)c(CC3CCC(C(=O)O)C3)nc2c1)c1ccccc1 (stereo partly drawn) [compound 404, 3-((3-(4-chlorophenyl)-7-(((S)-1-phenylethyl)carbamoyl)quinoxalin-2-yl)methyl)cyclopentane-carboxylic acid] |
| 2.1 to 20 | O=C(N[C@@H](c1ccccc1)C(F)(F)F)c1ccc2nc(-c3ccc(Cl)cc3)c(CC3CCC(C(=O)O)C3)nc2c1 (stereo partly drawn) [compound 405, 3-((3-(4-chlorophenyl)-7-(((S)-2,2,2-trifluoro-1-phenylethyl)carbamoyl)quinoxalin-2-yl)methyl)cyclopentane-carboxylic acid] |
| 2.1 to 20 | O=C(N[C@@H](c1ccc(Cl)cc1)C(F)(F)F)c1ccc2nc(-c3ccc(Cl)cc3)c(CC3CCC(C(=O)O)C3)nc2c1 (stereo partly drawn) [compound 406, 3-((3-(4-chlorophenyl)-7-(((S)-1-(4-chlorophenyl)-2,2,2-trifluoroethyl)carbamoyl)quinoxalin-2-yl)methyl)cyclopentane-carboxylic acid] |
| 2.1 to 20 | C[C@H](NC(=O)c1ccc2nc(-c3ccc(Cl)cc3)c(CC3CCC(C(=O)O)C3)nc2c1)c1ccc(F)cc1 (stereo partly drawn) [compound 407, 3-((3-(4-chlorophenyl)-7-(((S)-1-(4-fluorophenyl)ethyl)carbamoyl)quinoxalin-2-yl)methyl)cyclopentane-carboxylic acid] |
| 20.1 to 200 | C[C@@H](NC(=O)c1ccc2nc(-c3ccc(Cl)cc3)c(CCC(=O)O)nc2c1)c1ccc(F)cc1 [compound 418, (R)-3-(3-(4-chlorophenyl)-7-((1-(4-fluorophenyl)ethyl)carbamoyl)quinoxalin-2-yl) propanoic acid] |
| 2.1 to 20 | C[C@@H](NC(=O)c1ccc2nc(-c3ccccc3)c(CC3CC(C(=O)O)C3)nc2c1)c1ccc(F)cc1 (stereo partly drawn) [compound 422, (R)-3-((7-((1-(4-fluorophenyl)ethyl)carbamoyl)-3-phenylquinoxalin-2-yl)methyl)cyclobutanecarboxyl acid] |
| 20.1 to 200 | CC(CCCc1nc2cc(C(=O)N[C@@H](C)c3ccc(Cl)cc3)ccc2nc1-c1ccc(F)cc1)C(=O)O (stereo partly drawn) [compound 428, 5-(7-(((S)-1-(4-chlorophenyl)ethyl)carbamoyl)-3-3-(4-fluorophenyl)quinoxalin-2-yl)-2-methylpentanoic acid] |
| 0.1 to 2 | CC(CCc1nc2cc(C(=O)N[C@H](C)c3ccc(F)cc3)ccc2nc1-c1ccc(Cl)cc1)CC(=O)O (stereo partly drawn) [compound 429, 5-(3-(4-chlorophenyl)-7-(((R)-1-(4-fluorophenyl)ethyl)carbamoyl)quinoxalin-2-yl)-3-methylpentanoic acid] |

Further lines, the compound ahead of its results:

| SMILES | Ki [nM] |
| --- | --- |
| CC(C)[C@H](NC(=O)c1ccc2nc(-c3ccc(Cl)cc3)c(CCCCC(=O)O)nc2c1)c1ccc(F)cc1 [compound 402, (S)-5-(3-(4-chlorophenyl)-7-((1-(4-fluorophenyl)-2-methylpropyl)carbamoyl)quinoxalin-2-yl) pentanoic acid] | 2.1 to 20 |
| C[C@@H](NC(=O)c1ccc2nc(-c3ccc(Cl)cc3)c(CCCCC(=O)O)nc2c1)c1ccc(C#N)cc1 [compound 403, (R)-5-(3-(4-chlorophenyl)-7-((1-(4-cyanophenyl)ethyl)carbamoyl)quinoxalin-2-yl)pentanoic acid] | 0.1 to 2 |
| CC(CCCc1nc2cc(C(=O)N[C@H](C)c3ccc(F)cc3)ccc2nc1-c1ccc(Cl)cc1)C(=O)O (stereo partly drawn) [compound 408, 5-(3-(4-chlorophenyl)-7-(((R)-1-(4-fluorophenyl)ethyl)carbamoyl)quinoxalin-2-yl)-2-methylpentanoic acid] | 0.1 to 2 |
| CC(CCCc1nc2cc(C(=O)N[C@H](C)c3ccc(F)cc3)ccc2nc1-c1ccc(Cl)cc1)C(=O)O (stereo partly drawn) [compound 409, 5-(3-(4-chlorophenyl)-7-(((R)-1-(4-fluorophenyl)ethyl)carbamoyl)quinoxalin-2-yl)-2-methylpentanoic acid] | 20.1 to 200 |
| C[C@@H](NC(=O)c1ccc2nc(-c3cccc(C#N)c3)c(CCCCC(=O)O)nc2c1)c1ccc(F)cc1 [compound 410, (R)-5-(3-(3-cyanophenyl)-7-((1-(4-fluorophenyl)ethyl)carbamoyl)quinoxalin-2-yl)pentanoic acid] | 20.1 to 200 |
| C[C@@H](NC(=O)c1ccc2nc(-c3ccc(F)c(F)c3)c(CCCCC(=O)O)nc2c1)c1ccc(F)cc1 [compound 411] | 20.1 to 200 |
| C[C@@H](NC(=O)c1ccc2nc(-c3ccc(Cl)cc3)c(CCCCC(=O)O)nc2c1)c1cc(F)cc(F)c1 [compound 412, (R)-5-(3-(4-chlorophenyl)-7-((1-(3,5-difluorophenyl)ethyl)carbamoyl)quinoxalin-2-yl) pentanoic acid] | 0.1 to 2 |
| C[C@H](NC(=O)c1ccc2nc(-c3ccc(Cl)cc3)c(CCCCC(=O)O)nc2c1)c1cc(F)cc(F)c1 [compound 413, (S)-5-(3-(4-chlorophenyl)-7-((1-(3,5-difluorophenyl)ethyl)carbamoyl)quinoxalin-2-yl) pentanoic acid] | 0.1 to 2 |
| O=C(O)CCCCc1nc2cc(C(=O)N3CCC(c4ccc(F)cc4)CC3)ccc2nc1-c1ccc(Cl)cc1 [compound 414, 5-(3-(4-chlorophenyl)-7-(4-(4-fluorophenyl)piperidine-1-carbonyl)quinoxalin-2-yl)pentanoic acid] | 0.1 to 2 |
| O=C(O)CCCCc1nc2cc(C(=O)N3CCC(c4ccc(Cl)cc4)CC3)ccc2nc1-c1ccc(Cl)cc1 [compound 415, 5-(3-(4-chlorophenyl)-7-(4-(4-chlorophenyl)piperidine-1-carbonyl)quinoxalin-2-yl)pentanoic acid] | 0.1 to 2 |
| C[C@@H](NC(=O)c1ccc2nc(-c3ccc(Cl)cc3Cl)c(CCCCC(=O)O)nc2c1)c1ccc(F)cc1 [compound 416, (R)-5-(3-(2,4-dichlorophenyl)-7-((1-(4-fluorophenyl)ethyl)carbamoyl)quinoxalin-2-yl)pentanoic acid] | 2.1 to 20 |
| C[C@@H](NC(=O)c1ccc2nc(-c3ccc(C(F)(F)F)cc3Cl)c(CCCCC(=O)O)nc2c1)c1ccc(F)cc1 [compound 417, (R)-5-(3-(2-chloro-4-(trifluoromethyl)phenyl)-7-((1-(4-fluorophenyl)ethyl)carbamoyl)quinoxalin-2-yl) pentanoic acid] | 2.1 to 20 |
| O=C(O)CCCCc1nc2cc(C(=O)N3CC(c4cccc(F)c4)C3)ccc2nc1-c1ccc(Cl)cc1 [compound 419, 5-(3-(4-chlorophenyl)-7-(3-(3-fluorophenyl)azetidine-1-carbonyl)quinoxalin-2-yl)pentanoic acid] | 0.1 to 2 |
| O=C(O)CCCCc1nc2cc(C(=O)N3CC(c4ccc(F)c(F)c4)C3)ccc2nc1-c1ccc(Cl)cc1 [compound 420, 5-(3-(4-chlorophenyl)-7-(3-(3,4-difluorophenyl)azetidine-1-carbonyl)quinoxalin-2-yl)pentanoic acid] | 0.1 to 2 |
| N#Cc1ccc(C2CN(C(=O)c3ccc4nc(-c5ccc(Cl)cc5)c(CCCCC(=O)O)nc4c3)C2)cc1 [compound 421, 5-(3-(4-chlorophenyl)-7-(3-(4-cyanophenyl)azetidine-l-carbonyl)quinoxalin-2-yl)pentanoic acid] | 0.1 to 2 |
| CC(CCCc1nc2cc(C(=O)N3CCN(c4ccccc4)CC3)ccc2nc1-c1ccc(C(F)(F)F)cc1)C(=O)O (stereo not shown) [compound 423, 2-methyl-5-(7-(4-phenylpperazine-1-carbonyl)-3-(4-(trifluoromethyl)phenyl)quinoxalin-2-yl) pentanoic acid] | 2.1 to 20 |
| O=C(O)CCCCc1nc2cc(C(=O)N3CC(c4cccc(Cl)c4)C3)ccc2nc1-c1ccc(Cl)cc1 [compound 425, 5-(3-(4-chlorophenyl)-7-(3-(3-chlorophenyl)azetidine-1-carbonyl)quinoxalin-2-yl)pentanoic acid] | 0.1 to 2 |
| O=C(O)CCCCc1nc2cc(C(=O)N3CC(c4ccc(Cl)cc4)C3)ccc2nc1-c1ccc(Cl)cc1 [compound 426, 5-(3-(4-chlorophenyl)-7-(3-(4-chlorophenyl)azetidine-1-carbonyl)quinoxalin-2-yl)pentanoic acid] | 0.1 to 2 |
| CC(CCCc1nc2cc(C(=O)N[C@H](C)c3ccc(Cl)cc3)ccc2nc1-c1ccc(F)cc1)C(=O)O (stereo partly drawn) [compound 427, 5-(7-(((R)-1-(4-chlorophenyl)ethyl)carbamoyl)-3-(4-fluorophenyl)quinoxalin-2-yl)-2-methylpentanoic acid] | 2.1 to 20 |
| CC(CCc1nc2cc(C(=O)N[C@@H](C)c3ccc(F)cc3)ccc2nc1-c1ccc(F)cc1)CC(=O)O (stereo partly drawn) [compound 430, 5-(3-(4-fluorophenyl)-7-(((S)-1-(4-fluorophenyl)ethyl)carbamoyl)quinoxalin-2-yl)-3-methylpentanoic acid] | 2.1 to 20 |
| CC(CCc1nc2cc(C(=O)N[C@@H]3CCCc4ccccc43)ccc2nc1-c1ccc(F)cc1)CC(=O)O (stereo partly drawn) [compound 431, 5-(3-(4-fluorophenyl)-7-(((R)-1,2,3,4-tetrahydronaphthalen-1-yl)carbamoyl)quinoxalin-2-yl)-3-methylpentanoic acid] | 2.1 to 20 |
